Results as given in PubChem BioAssay AID1963837 (Molecular Pharmacology Branch, DTP, NCI, 2024).
Values joined by “and” are separate entries in the source; they are usually repeats but may differ in a detail not shown here. Equal entries are not always repeated.

Tested on: 843126-344-R-J1-PDC complex spheroid viability
Assay: Anticancer human tumor 843126-344-R-J1-PDC patient-derived melanoma cell line growth inhibition [POLQ]
Conditions: for viability, T/C: stronger effect = lower value
Experimental: Multicellular complex tumor spheroid response to Polymerase (POL) inhibitors (novobiocin, ART-558, RP6685) in combination with a variety of drugs and investigational agents in selected tumor cell lines
The POL inhibitors (novobiocin, ART-558, and RP6685) were evaluated both individually and in combination with standard of care and investigational anticancer small molecules within a complex spheroid model of solid tumors. . Complex spheroids include a stromal component modeled by human endothelial cells (HUVEC) and fibroblasts modeled by human mesenchymal stem cells (MSCs). The concentration ranges selected for each drug and investigational agent were based upon clinically achievable concentrations if the clinical Cmax of the agent was known.
Compounds. The drugs and investigational agents: novobiocin (NSC847541), ART-558 (NSC835418), RP-6685 (NSC848927), peposertib (NSC802822), ceralasertib (NSC780249), elimusertib (NSC800525), camonsertib (NSC841442), AZD-1390 (NSC803789), olaparib (NSC753686), talazoparib (NSC767125), rucaparib (NSC756644), sotorasib (NSC818433), MRTX-1133 (NSC836407), SN-38 (NSC673596), topotecan (NSC609699), epotoside (NSC141540), doxorubicin (NSC123127), gemcitabine (NSC613327), 5-fluorouracil (NSC19893), paclitaxel (NSC125973), vemurafenib (NSC761431), MSA-2 (NSC828583), SN-011 (NSC837082), adavosertib (NSC754352), prexasertib (NSC758257), carboplatin (NSC241240) and oxaliplatin (NSC266046), were obtained from the National Cancer Institute (NCI) Developmental Therapeutics Program Chemical Repository (21). The FDA-approved anticancer drug set is available from the Developmental Therapeutics Program at https://dtp.cancer.gov/organization/dscb/obtaining/. […] The stock solutions were prepared in dimethyl sulfoxide (DMSO, Sigma-Aldrich, St. Louis, MO, cat. D2650), except for the platinum compounds which were prepared in saline (Quality Biological, Gaithersburg, MD, cat. 114-055-101), at 800-fold the tested concentration and stored at -70 degrees C prior to their use. All drugs and investigational agents were tested over a range starting from a high concentration at or near the clinical Cmax and decreasing in half-log increments. If the clinical Cmax for an agent had not been determined, the highest concentration tested was 10 microM, except for SN-38, which was tested at a high concentration of 1 microM.
Cell Culture. All cells were maintained in an incubator at 37 degrees C and 5% CO2 with 95% humidity. The PDC lines were cultured according to standard operating procedures established by the NCI PDMR (https://pdmr.cancer.gov). Table 3 of the manuscript, lists the cell lines along with the number of the three cell types plated to form the mct-spheroids and media for tumor cell growth. After thawing, all PDC lines, except 997537-175-T-J1-PDC and 415267-285-R-J2-PDC, were cultured in Matrigel-coated flasks prepared with a working solution of 1X Ham's F-12 nutrient mix, without supplementation (Thermo Fisher Scientific, cat. 11765054), 100 U/mL penicillin-streptomycin (Thermo Fisher Scientific, cat. 15140122), and 2.5% Matrigel (Corning Inc., Corning, NY, cat. 354248) for the first three passages. The two PDC lines 997537-175-T-J1-PDC and 415267-285-R-J2-PDC were cultured on uncoated flasks. The 857933-349-R-J2-PDC line was cultured in 6C/Colon 1B media containing advanced DMEM/F-12 (Thermo Fisher Scientific, cat. 12634028), 10 mM HEPES (Thermo Fisher Scientific, cat. 15630080), 1X GlutaMAX supplement (Thermo Fisher Scientific, cat. 35050061), 0.1 mg/mL primocin (InvivoGen, San Diego, CA, cat. ant-pm-2), 10% defined fetal bovine serum, heat inactivated (HyClone Laboratories Inc., Logan, UT, cat. SH30070.03HI), 50% L-WRN conditioned media (ATCC, cat. CRL-3276), 1.25 mM N-Acetyl-L-cysteine (Sigma-Aldrich, cat. A9165), 10 mM nicotinamide (Sigma-Aldrich, cat. N0636), 1X B-27 supplement (Thermo Fisher Scientific, cat. 17504044), 1X N-2 supplement (Thermo Fisher Scientific, cat. […]
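Wherever viability, T/C is given: spheroids exposed to drugs for seven days before readout.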

C#Cc1c(F)ccc2cc(O)cc(-c3ncc4c(N5CC6CCC(C5)N6)nc(OCC56CCCN5CC(F)C6)nc4c3F)c12 (stereo not drawn)
viability, T/C (compound 0.0316 µM): 90.2% and 115% and 80.5% | viability, T/C (compound 0.1 µM): 116% and 88.3% and 91.5% | viability, T/C (compound 0.316 µM): 96.1% and 97.6% and 95.8% | viability, T/C (compound 1 µM): 78.2% and 100% and 82.2% | viability, T/C (compound 3.16 µM): 95.1% and 96.5% and 95.2% | viability, T/C (compound 10 µM): 87.4% and 85.2% and 85.5% | IC50 (curve of compound): > 10 µM

COc1cc(C2c3cc4c(cc3C(OC3OC5COC(C)OC5C(O)C3O)C3COC(=O)C23)OCO4)cc(OC)c1O (stereo not drawn)
viability, T/C (compound 0.0316 µM): 82.2% and 114% and 91.2% | viability, T/C (compound 0.1 µM): 95.3% and 90.7% and 102% | viability, T/C (compound 0.316 µM): 90% and 97.6% and 83.3% | viability, T/C (compound 1 µM): 90.9% and 79% and 81.2% | viability, T/C (compound 3.16 µM): 58.2% and 68.9% and 66.3% | viability, T/C (compound 10 µM): 50% and 52.2% and 41.9% | IC50 (curve of compound): > 10 µM and 6.8 µM

CCc1cc2c(N3CCc4c(cc(Cn5ccnc5)cc4-c4cn(C)nc4C(F)(F)F)C3=O)cc(C)nc2c(OC)n1
viability, T/C (compound 0.0316 µM): 103% and 106% and 77.7% | viability, T/C (compound 0.1 µM): 81.1% and 72.2% and 85.4% | viability, T/C (compound 0.316 µM): 76.4% and 87.8% and 98.1% | viability, T/C (compound 1 µM): 64.2% and 76.7% and 85.2% | viability, T/C (compound 3.16 µM): 71.5% and 72.6% and 64.6% | viability, T/C (compound 10 µM): 54.2% and 60.3% | IC50 (curve of compound): > 10 µM

CNCc1ccc(-c2[nH]c3cc(F)cc4c3c2CCNC4=O)cc1 + Nc1ccc(C#CCN(C(=O)Cc2ncc(C(F)(F)F)cc2C(F)(F)F)c2ccc(F)cc2)nn1
IC50 (curve of first compound, second compound 0.0316 µM): > 10 µM | IC50 (curve of first compound, second compound 0.1 µM): > 10 µM | IC50 (curve of first compound, second compound 0.316 µM): > 10 µM | IC50 (curve of first compound, second compound 1 µM): > 10 µM | IC50 (curve of first compound, second compound 3.16 µM): > 10 µM | IC50 (curve of first compound, second compound 10 µM): > 10 µM | viability, T/C (second compound 0.0316 µM, first compound 0.0316 µM): 104% | viability, T/C (second compound 0.0316 µM, first compound 0.1 µM): 92.1% | viability, T/C (second compound 0.0316 µM, first compound 0.316 µM): 100% | viability, T/C (second compound 0.0316 µM, first compound 1 µM): 108% | viability, T/C (second compound 0.0316 µM, first compound 3.16 µM): 98.5% | viability, T/C (second compound 0.0316 µM, first compound 10 µM): 83.4% | viability, T/C (second compound 0.1 µM, first compound 0.0316 µM): 96.4% | viability, T/C (second compound 0.1 µM, first compound 0.1 µM): 103% | viability, T/C (second compound 0.1 µM, first compound 0.316 µM): 101% | viability, T/C (second compound 0.1 µM, first compound 1 µM): 95% | viability, T/C (second compound 0.1 µM, first compound 3.16 µM): 94.3% | viability, T/C (second compound 0.1 µM, first compound 10 µM): 88.5% | viability, T/C (second compound 0.316 µM, first compound 0.0316 µM): 95.8% | viability, T/C (second compound 0.316 µM, first compound 0.1 µM): 105% | viability, T/C (second compound 0.316 µM, first compound 0.316 µM): 97.3% | viability, T/C (second compound 0.316 µM, first compound 1 µM): 103% | viability, T/C (second compound 0.316 µM, first compound 3.16 µM): 94.4% | viability, T/C (second compound 0.316 µM, first compound 10 µM): 84.3% | viability, T/C (second compound 1 µM, first compound 0.0316 µM): 103% | viability, T/C (second compound 1 µM, first compound 0.1 µM): 103% | viability, T/C (second compound 1 µM, first compound 0.316 µM): 95.9% | viability, T/C (second compound 1 µM, first compound 1 µM): 117% | viability, T/C (second compound 1 µM, first compound 3.16 µM): 102% | viability, T/C (second compound 1 µM, first compound 10 µM): 86.3% | viability, T/C (second compound 3.16 µM, first compound 0.0316 µM): 92.6% | viability, T/C (second compound 3.16 µM, first compound 0.1 µM): 86.3% | viability, T/C (second compound 3.16 µM, first compound 0.316 µM): 95.2% | viability, T/C (second compound 3.16 µM, first compound 1 µM): 83.6% | viability, T/C (second compound 3.16 µM, first compound 3.16 µM): 98.2% | viability, T/C (second compound 3.16 µM, first compound 10 µM): 90.9% | viability, T/C (second compound 10 µM, first compound 0.0316 µM): 91.3% | viability, T/C (second compound 10 µM, first compound 0.1 µM): 89.1% | viability, T/C (second compound 10 µM, first compound 0.316 µM): 91.9% | viability, T/C (second compound 10 µM, first compound 1 µM): 92.9% | viability, T/C (second compound 10 µM, first compound 3.16 µM): 91.5% | viability, T/C (second compound 10 µM, first compound 10 µM): 85.9%
